Measured values taken from US11547699B2, “[2-[(5-nitro-1,3-thiazol-2-yl)carbamoyl]phenyl]ethanoate for use in lymphangioleiomyomatosis and other diseases” (priority 2017, dated 2023).

How the values were obtained:
[1] = tested on: phosphorylation of the ribosomal protein S6 in MEF cells; experiment: rpS6 phosphorylation in MEF cells (ELISA and Western blotting), read-out for mTOR pathway activity; assay type: cell-based, mouse; settings: 60 minutes incubation
Description: These assays are used to test the effect of a compound on the activity of the mTOR pathway. Phosphorylation of ribosomal protein rp60 is used as read-out for mTOR pathway activity. […] Thus, these assays mimic a disease causative mechanism.
MEFs are mouse embryo fibroblasts derived from TSC2 knockout (MEF110) and TSC2+ (MEF157) mice. Tsc2 mutations are known to cause tuberous sclerosis and lymphangioleiomyomatosis in humans.
All cells were maintained in DMEM tissue culture medium, with the addition of fetal calf serum to 10% to support cell proliferation, at 37° C. and 5% CO2.
In MEFs, ribosomal protein S6, which is a component of the 40S ribosome, and phosphorylated at Ser236 by p70 S6 kinase can be assayed by ELISA and Western blotting, using phospho-specific antibodies which detect both the human and the mouse forms of rpS6. This assay is predicitve of compounds with protective or therapetic activities for respiratory and vascular diseases, fibrotic diseases, or neurodegenerative diseases.
Cells were grown to 60-80% confluence in DMEM+10% serum. Medium was replaced with fresh serum free medium two hours before addition of test compound of the invention.
Compound was added as a 1:1000 dilution of the stock solution in DMSO. DMSO was added as a vehicle control, and samples were incubated for a further 60 minutes. […]

[2] = tested on: phosphorylation of the ribosomal protein S6 in 621-101 cells; experiment: rpS6 phosphorylation in 621-101 cells (ELISA and Western blotting), read-out for mTOR pathway activity; assay type: cell-based, human; settings: 60 minutes incubation
Protocol: These assays are used to test the effect of a compound on the activity of the mTOR pathway. Phosphorylation of ribosomal protein rp60 is used as read-out for mTOR pathway activity. […] Thus, these assays mimic a disease causative mechanism. 621-101 cells are human cells derived from an angiomyolipoma. They have verified TSC2 mutations and are the only disease-derived mutation-bearing cells used that are mimicking the disease Lymphangioleiomyomitosis. Cells were grown to 60-80% confluence in DMEM+10% serum. Medium was replaced with fresh serum free medium two hours before addition of test compound of the invention. Compound was added as a 1:1000 dilution of the stock solution in DMSO. DMSO was added as a vehicle control, and samples were incubated for a further 60 minutes. For ELISA, cells were harvested into 200 ul cell lysis buffer containing both protease and phosphatase inhibitors, to protect the phosphorylation status of rpS6. Lysates were stored at −80° C. prior to use. 50 ul of lysate per sample was used for the ELISA, which was carried out according to manufacturers' instructions. For Western blotting, cells were harvested into 200 ul cell lysis buffer containing both protease and phosphatase inhibitors and resolved by SDS-PAGE before transfer to PVDF membrane and incubation with anti-phospho-rpS6 and anti-total-rpS6 antibodies.

**Q.** With `CC(=O)Oc1ccccc1C(=O)Nc1ncc([N+](=O)[O-])s1` [the compound of the invention, [2-[(5-nitro-1,3-thiazol-2-yl)carbamoyl]phenyl]ethanoate] as the compound, how does the “tolerability by the cells” value [1] read?
**A.** well tolerated

**Q.** And the “tolerability by the cells” value [2]?
**A.** well tolerated
